ChEMBL document CHEMBL1154736, “Increasing selectivity of CC chemokine receptor 8 antagonists by engineering nondesolvation related interactions with the intended and off-target binding sites” (J Med Chem, 2009)
pIC50: −log10 of the molar value.

Molecular target: Voltage-gated inwardly rectifying potassium channel KCNH2 (Homo sapiens, UniProt Q12809, S624A)
Test: Inhibition of human recombinant ERG S624A mutant expressed in CHOK1 cells by whole-cell plate-based electrophysiology
Conditions: cho-k1

Point of comparison: `CC1Cc2cccc(CN3CCC4(CC3)CCN(C(=O)c3ccncc3)CC4)c2O1` (centres undefined), “delta pIC50 wt-mutant” value 0.61. Against it:
- CC1(C)CCc2cc(CN3CCC4(CC3)CCN(C(=O)c3ccncn3)CC4)ccc2O1 — within 0.2 log units, 0.74
- CC1(C)C=Cc2cccc(CN3CCC4(CC3)CCN(C(=O)c3ccnc(N)c3)CC4)c2O1 — within 0.2 log units, 0.48
- CC1(C)Cc2cccc(CN3CCC4(CC3)CCN(C(=O)c3ccc(N)cn3)CC4)c2O1 — higher, 0.82
- COc1ccccc1Oc1cccc(CN2CCC3(CC2)CCN(C(=O)c2ccncn2)CC3)c1 — within 0.2 log units, 0.67
- CC1(C)Oc2c(CN3CCC4(CC3)CCN(C(=O)c3ccc(N)cn3)CC4)cccc2C1(F)F — lower, 0.36

Molecular target: Voltage-gated inwardly rectifying potassium channel KCNH2 (Homo sapiens, UniProt Q12809, S624T)
Test: Inhibition of human recombinant ERG S624T mutant expressed in CHOK1 cells by whole-cell plate-based electrophysiology
Conditions: cho-k1

Point of comparison: `CC1(C)C=Cc2cccc(CN3CCC4(CC3)CCN(C(=O)c3ccnc(N)c3)CC4)c2O1`, “delta pIC50 wt-mutant” value -0.62. Against it:
- CC1Cc2cccc(CN3CCC4(CC3)CCN(C(=O)c3ccncc3)CC4)c2O1 (centres undefined) — higher, -0.12
- CC1(C)CCc2cc(CN3CCC4(CC3)CCN(C(=O)c3ccncn3)CC4)ccc2O1 — higher, -0.39
- CC1(C)Cc2cccc(CN3CCC4(CC3)CCN(C(=O)c3ccc(N)cn3)CC4)c2O1 — higher, -0.05
- COc1ccccc1Oc1cccc(CN2CCC3(CC2)CCN(C(=O)c2ccncn2)CC3)c1 — higher, -0.3
- CC1(C)Oc2c(CN3CCC4(CC3)CCN(C(=O)c3ccc(N)cn3)CC4)cccc2C1(F)F — the same, -0.62

Molecular target: Voltage-gated inwardly rectifying potassium channel KCNH2 (Homo sapiens, UniProt Q12809, Y652A)
Test: Inhibition of human recombinant ERG Y652A mutant expressed in CHOK1 cells by whole-cell plate-based electrophysiology
Conditions: cho-k1

Point of comparison: `CC1(C)Oc2c(CN3CCC4(CC3)CCN(C(=O)c3ccc(N)cn3)CC4)cccc2C1(F)F`, “delta pIC50 wt-mutant” value 0.87. Against it:
- CC1Cc2cccc(CN3CCC4(CC3)CCN(C(=O)c3ccncc3)CC4)c2O1 (centres undefined) — higher, 1.63
- CC1(C)CCc2cc(CN3CCC4(CC3)CCN(C(=O)c3ccncn3)CC4)ccc2O1 — within 0.2 log units, 0.82
- CC1(C)C=Cc2cccc(CN3CCC4(CC3)CCN(C(=O)c3ccnc(N)c3)CC4)c2O1 — within 0.2 log units, 0.93
- CC1(C)Cc2cccc(CN3CCC4(CC3)CCN(C(=O)c3ccc(N)cn3)CC4)c2O1 — within 0.2 log units, 0.83
- COc1ccccc1Oc1cccc(CN2CCC3(CC2)CCN(C(=O)c2ccncn2)CC3)c1 — within 0.2 log units, 0.98

Molecular target: Voltage-gated inwardly rectifying potassium channel KCNH2 (Homo sapiens, UniProt Q12809, Y652F)
Test: Inhibition of human recombinant ERG Y652F mutant expressed in CHOK1 cells by whole-cell plate-based electrophysiology
Conditions: cho-k1

Point of comparison: `CC1(C)CCc2cc(CN3CCC4(CC3)CCN(C(=O)c3ccncn3)CC4)ccc2O1`, “delta pIC50 wt-mutant” value 0.11. Against it:
- CC1Cc2cccc(CN3CCC4(CC3)CCN(C(=O)c3ccncc3)CC4)c2O1 (centres undefined) — lower, -0.21
- CC1(C)C=Cc2cccc(CN3CCC4(CC3)CCN(C(=O)c3ccnc(N)c3)CC4)c2O1 — within 0.2 log units, 0.04
- CC1(C)Cc2cccc(CN3CCC4(CC3)CCN(C(=O)c3ccc(N)cn3)CC4)c2O1 — higher, 0.35
- COc1ccccc1Oc1cccc(CN2CCC3(CC2)CCN(C(=O)c2ccncn2)CC3)c1 — lower, -0.29
- CC1(C)Oc2c(CN3CCC4(CC3)CCN(C(=O)c3ccc(N)cn3)CC4)cccc2C1(F)F — within 0.2 log units, 0.02

Molecular target: Voltage-gated inwardly rectifying potassium channel KCNH2 (Homo sapiens, UniProt Q12809, F656M)
Test: Inhibition of human recombinant ERG F656M mutant expressed in CHOK1 cells by whole-cell plate-based electrophysiology
Conditions: cho-k1

Point of comparison: `CC1(C)CCc2cc(CN3CCC4(CC3)CCN(C(=O)c3ccncn3)CC4)ccc2O1`, “delta pIC50 wt-mutant” value -0.3. Against it:
- CC1Cc2cccc(CN3CCC4(CC3)CCN(C(=O)c3ccncc3)CC4)c2O1 (centres undefined) — higher, 1.04
- CC1(C)C=Cc2cccc(CN3CCC4(CC3)CCN(C(=O)c3ccnc(N)c3)CC4)c2O1 — higher, 0.37
- CC1(C)Cc2cccc(CN3CCC4(CC3)CCN(C(=O)c3ccc(N)cn3)CC4)c2O1 — within 0.2 log units, -0.31
- COc1ccccc1Oc1cccc(CN2CCC3(CC2)CCN(C(=O)c2ccncn2)CC3)c1 — within 0.2 log units, -0.2
- CC1(C)Oc2c(CN3CCC4(CC3)CCN(C(=O)c3ccc(N)cn3)CC4)cccc2C1(F)F — within 0.2 log units, -0.49

Molecular target: Voltage-gated inwardly rectifying potassium channel KCNH2 (Homo sapiens, UniProt Q12809, F656T)
Test: Inhibition of human recombinant ERG F656T mutant expressed in CHOK1 cells by whole-cell plate-based electrophysiology
Conditions: cho-k1

Point of comparison: `CC1(C)C=Cc2cccc(CN3CCC4(CC3)CCN(C(=O)c3ccnc(N)c3)CC4)c2O1`, “delta pIC50 wt-mutant” value 1.32. Against it:
- CC1Cc2cccc(CN3CCC4(CC3)CCN(C(=O)c3ccncc3)CC4)c2O1 (centres undefined) — within 0.2 log units, 1.41
- CC1(C)CCc2cc(CN3CCC4(CC3)CCN(C(=O)c3ccncn3)CC4)ccc2O1 — lower, 0.46
- CC1(C)Cc2cccc(CN3CCC4(CC3)CCN(C(=O)c3ccc(N)cn3)CC4)c2O1 — lower, 0.51
- COc1ccccc1Oc1cccc(CN2CCC3(CC2)CCN(C(=O)c2ccncn2)CC3)c1 — lower, 0.58
- CC1(C)Oc2c(CN3CCC4(CC3)CCN(C(=O)c3ccc(N)cn3)CC4)cccc2C1(F)F — lower, -0.17

Molecular target: Voltage-gated inwardly rectifying potassium channel KCNH2 (Homo sapiens, UniProt Q12809, F656W)
Test: Inhibition of human recombinant ERG F656W mutant expressed in CHOK1 cells by whole-cell plate-based electrophysiology
Conditions: cho-k1

Point of comparison: `COc1ccccc1Oc1cccc(CN2CCC3(CC2)CCN(C(=O)c2ccncn2)CC3)c1`, “delta pIC50 wt-mutant” value -0.15. Against it:
- CC1Cc2cccc(CN3CCC4(CC3)CCN(C(=O)c3ccncc3)CC4)c2O1 (centres undefined) — lower, -0.58
- CC1(C)CCc2cc(CN3CCC4(CC3)CCN(C(=O)c3ccncn3)CC4)ccc2O1 — within 0.2 log units, -0.14
- CC1(C)C=Cc2cccc(CN3CCC4(CC3)CCN(C(=O)c3ccnc(N)c3)CC4)c2O1 — lower, -0.75
- CC1(C)Cc2cccc(CN3CCC4(CC3)CCN(C(=O)c3ccc(N)cn3)CC4)c2O1 — lower, -0.99
- CC1(C)Oc2c(CN3CCC4(CC3)CCN(C(=O)c3ccc(N)cn3)CC4)cccc2C1(F)F — lower, -1.07

Molecular target: T1, Voltage-gated inwardly rectifying potassium channel KCNH2 (Homo sapiens, UniProt Q12809)
Test: Displacement of [3H]dofetilide from human recombinant ERG expressed in HEK293 cells by patch clamp method
Conditions: not given

Point of comparison: `CC1(C)Oc2c(CN3CCC4(CC3)CCN(C(=O)c3ccc(N)cn3)CC4)cccc2C1(F)F`, pIC50 4.32. Against it:
- CC1(C)Cc2cccc(CN3CCC4(CC3)CCN(C(=O)c3ccc(N)cn3)CC4)c2O1 — within 0.2 log units, 4.43

Test system: not listed separately
Test: Apparent n-Octanol-water partition coefficient, log D at pH 7.4 by HPLC analysis
Conditions: not given

Point of comparison: `CC1(C)Oc2c(CN3CCC4(CC3)CCN(C(=O)c3ccc(N)cn3)CC4)cccc2C1(F)F`, logD 2.3. Against it:
- CC1(C)CCc2cc(CN3CCC4(CC3)CCN(C(=O)c3ccncn3)CC4)ccc2O1 — lower, 0.9
- CC1(C)C=Cc2cccc(CN3CCC4(CC3)CCN(C(=O)c3ccnc(N)c3)CC4)c2O1 — lower, 1.5
- CC1(C)Cc2cccc(CN3CCC4(CC3)CCN(C(=O)c3ccc(N)cn3)CC4)c2O1 — lower, 1
- COc1ccccc1Oc1cccc(CN2CCC3(CC2)CCN(C(=O)c2ccncn2)CC3)c1 — lower, 1.7

Molecular target: T1, Voltage-gated inwardly rectifying potassium channel KCNH2
Test: Inhibition of wild type human ERG expressed in CHOK1 cells by whole-cell plate-based electrophysiology
Conditions: not given

Point of comparison: `CC1(C)Oc2c(CN3CCC4(CC3)CCN(C(=O)c3ccc(N)cn3)CC4)cccc2C1(F)F`, pIC50 4.51. Against it:
- CC1(C)CCc2cc(CN3CCC4(CC3)CCN(C(=O)c3ccncn3)CC4)ccc2O1 — 0.44 log units higher, 4.95
- CC1(C)Cc2cccc(CN3CCC4(CC3)CCN(C(=O)c3ccc(N)cn3)CC4)c2O1 — within 0.2 log units, 4.36
- COc1ccccc1Oc1cccc(CN2CCC3(CC2)CCN(C(=O)c2ccncn2)CC3)c1 — 1.21 log units higher, 5.72

Molecular target: C-C chemokine receptor type 8 (Homo sapiens, UniProt P51685)
Sequence (P51685 whole entry): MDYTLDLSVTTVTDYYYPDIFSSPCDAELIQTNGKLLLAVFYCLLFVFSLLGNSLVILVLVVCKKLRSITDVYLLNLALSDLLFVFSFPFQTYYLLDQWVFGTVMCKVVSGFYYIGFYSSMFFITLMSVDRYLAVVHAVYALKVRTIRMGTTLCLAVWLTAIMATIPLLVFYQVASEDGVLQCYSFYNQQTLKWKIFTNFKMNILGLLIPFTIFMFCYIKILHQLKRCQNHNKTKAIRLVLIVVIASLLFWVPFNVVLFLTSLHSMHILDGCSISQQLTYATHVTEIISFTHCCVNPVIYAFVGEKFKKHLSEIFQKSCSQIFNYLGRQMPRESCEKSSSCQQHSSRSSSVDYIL
Test: Antagonist activity at human CCR8
Format: functional
Conditions: not given

Point of comparison: `COc1ccccc1Oc1cccc(CN2CCC3(CC2)CCN(C(=O)c2ccncn2)CC3)c1`, pIC50 8.31. Against it:
- CC1(C)CCc2cc(CN3CCC4(CC3)CCN(C(=O)c3ccncn3)CC4)ccc2O1 — 2.57 log units lower, 5.74
- CC1(C)C=Cc2cccc(CN3CCC4(CC3)CCN(C(=O)c3ccnc(N)c3)CC4)c2O1 — within 0.2 log units, 8.25
- CC1(C)Cc2cccc(CN3CCC4(CC3)CCN(C(=O)c3ccc(N)cn3)CC4)c2O1 — 0.27 log units higher, 8.58
- CC1(C)Oc2c(CN3CCC4(CC3)CCN(C(=O)c3ccc(N)cn3)CC4)cccc2C1(F)F — 0.27 log units higher, 8.58

Molecular target: Voltage-gated inwardly rectifying potassium channel KCNH2 (Homo sapiens, UniProt Q12809, T623S)
Test: Inhibition of human recombinant ERG T623S mutant expressed in CHOK1 cells by whole-cell plate-based electrophysiology
Conditions: cho-k1

Point of comparison: `CC1(C)Cc2cccc(CN3CCC4(CC3)CCN(C(=O)c3ccc(N)cn3)CC4)c2O1`, “delta pIC50 wt-mutant” value 0.22. Against it:
- CC1Cc2cccc(CN3CCC4(CC3)CCN(C(=O)c3ccncc3)CC4)c2O1 (centres undefined) — within 0.2 log units, 0.24
- CC1(C)CCc2cc(CN3CCC4(CC3)CCN(C(=O)c3ccncn3)CC4)ccc2O1 — within 0.2 log units, 0.39
- CC1(C)C=Cc2cccc(CN3CCC4(CC3)CCN(C(=O)c3ccnc(N)c3)CC4)c2O1 — within 0.2 log units, 0.2
- COc1ccccc1Oc1cccc(CN2CCC3(CC2)CCN(C(=O)c2ccncn2)CC3)c1 — higher, 0.44
- CC1(C)Oc2c(CN3CCC4(CC3)CCN(C(=O)c3ccc(N)cn3)CC4)cccc2C1(F)F — lower, 0.01
